Here are results for twelve molecules from DBAASP.

Among the test systems are Pseudomonas aeruginosa; Shigella dysenteriae; Escherichia coli; Bacillus subtilis.
What all share (test): ≥ marks a high value that may be exact or a test limit, other limits are often not marked, values filed in µg/mL are converted to µM
In experiment [1] the test system is Escherichia coli ATCC 25922.
The test system of experiment [2] is Acinetobacter calcoaceticus.
The test system of experiment [3] is Staphylococcus aureus ATCC 2592.
In experiment [4] the test system is Candida albicans ATCC 2002.
For experiment [5], the system named is Escherichia coli DH5alpha.
In experiment [6] the test system is Staphylococcus aureus ATCC 9144.
Experiment [7] has as its system Escherichia coli ATCC 10536.
For experiment [8], the system named is Bacillus subtilis ATCC 6633.
The test system of experiment [9] is Escherichia coli IFO 12734.
Experiment [10] concerns Staphylococcus aureus IFO 12732.
In experiment [11] the test system is Bacillus subtilis IFO 3513.
The test system of experiment [12] is Staphylococcus aureus ATCC BAA-1556.
For experiment [13], the system named is Candida albicans ATCC 10231.
Experiment [14] deals with Staphylococcus epidermidis KCTC 1917.
In experiment [15] the test system is Enterococcus faecalis ATCC 29212.
Experiment [16] has as its system Pseudomonas aeruginosa ATCC 15422.
In experiment [17] the test system is Pseudomonas aeruginosa ATCC 27853.
Experiment [18] deals with Streptococcus pyogenes ATCC 19615.
The test system of experiment [19] is Klebsiella pneumoniae ATCC 13883.
The subject of experiment [20] is Salmonella enterica subsp. enterica serovar Typhimurium ATCC 14028.
For experiment [21], the system named is Staphylococcus aureus ATCC 25923.

Structures are written as SMILES. In brackets after ≈: the same amount, converted by molar mass. Several values for one entry are separate records, joined by “and”; a condition that tells them apart may be missing. Equal values may be shown once.

As a reminder, the MIC is the lowest concentration that inhibits growth of the organism.

For the molecule `CC[C@H](C)[C@H](NC(=O)[C@@H]1CCCN1C(=O)[C@H](Cc1ccccc1)NC(=O)[C@@H](N)Cc1ccccc1)C(=O)N[C@H](C(=O)NCC(=O)N[C@@H](CCCCN)C(=O)N[C@@H](CC(C)C)C(=O)N[C@@H](CC(C)C)C(=O)N[C@@H](CO)C(N)=O)C(C)C` [FFPIVGKLLS], the minimum inhibitory concentration (MIC) against Pseudomonas aeruginosa is 22.3 µM (≈ 25 µg/mL); in [1], 26.8 µM (≈ 30 µg/mL); in the experiment with Shigella dysenteriae it was not below 53.6 µM; in experiment [2], not below 66.9 µM; in [3], 13.4 µM (≈ 15 µg/mL); in [4] it was 13.4 µM (≈ 15 µg/mL).

On to `CC[C@H](C)[C@H](NC(=O)[C@H](CCCN=C(N)N)NC(=O)[C@@H](NC(=O)[C@@H](NC(=O)[C@@H]1CCCN1C(=O)[C@@H](NC(=O)[C@@H](NC(=O)[C@H](C)NC(=O)[C@@H]1CCCN1C(=O)CNC(=O)[C@H](Cc1ccc(O)cc1)NC(=O)[C@H](CCCCN)NC(=O)[C@H](CCCCN)NC(=O)[C@H](Cc1c[nH]c2ccccc12)NC(=O)[C@H](C)NC(=O)[C@H](CCCN=C(N)N)NC(=O)[C@H](CC(C)C)NC(=O)[C@H](C)NC(=O)[C@H](CCCCN)NC(=O)[C@H](CCCN=C(N)N)NC(=O)CNC(=O)[C@H](CC(C)C)NC(=O)[C@H](CO)NC(=O)[C@H](CCCN=C(N)N)NC(=O)[C@H](C)NC(=O)CNC(=O)CN)[C@@H](C)CC)C(C)C)[C@@H](C)CC)[C@@H](C)CC)C(N)=O` [GGARSLGRKALRAWKKYGPAIVPIIRI], for which the MIC was determined as 2.6 µM (≈ 7.66 µg/mL) in [5], 3.9 µM (≈ 11.5 µg/mL) in experiment [6], 2.6 µM (≈ 7.66 µg/mL) in [7] and 1.7 µM (≈ 5.01 µg/mL) in experiment [8].

On to `CC[C@H](C)[C@H](NC(=O)[C@H](CCCN=C(N)N)NC(=O)[C@@H](NC(=O)[C@@H](NC(=O)[C@@H]1CCCN1C(=O)[C@@H](NC(=O)[C@@H](NC(=O)[C@@H](NC(=O)[C@@H]1CCCN1C(=O)CNC(=O)[C@H](Cc1ccc(O)cc1)NC(=O)[C@H](CCCCN)NC(=O)[C@H](CCCCN)NC(=O)[C@H](Cc1c[nH]c2ccccc12)NC(=O)[C@H](C)NC(=O)[C@H](CCCN=C(N)N)NC(=O)[C@H](CC(C)C)NC(=O)[C@H](C)NC(=O)[C@H](CCCCN)NC(=O)[C@H](CCCN=C(N)N)NC(=O)CNC(=O)[C@H](CC(C)C)NC(=O)[C@H](CO)NC(=O)[C@H](CCCN=C(N)N)NC(=O)[C@H](C)NC(=O)CNC(=O)CN)[C@@H](C)CC)[C@@H](C)CC)C(C)C)[C@@H](C)CC)[C@@H](C)CC)C(N)=O` [GGARSLGRKALRAWKKYGPIIVPIIRI], for which the minimum inhibitory concentration (MIC) in experiment [5] worked out at 2.7 µM (≈ 8.07 µg/mL); in experiment [6] it was 3.8 µM (≈ 11.4 µg/mL); in [7], 2.5 µM (≈ 7.47 µg/mL); in experiment [8] it was 1.5 µM (≈ 4.48 µg/mL).

In the case of `CC[C@H](C)[C@H](N)C(=O)N[C@@H](CC(C)C)C(=O)N1CCC[C@H]1C(=O)N[C@@H](CC(C)C)C(=O)N[C@@H](CCCCN)C(=O)N[C@@H](CC(C)C)C(=O)N1CCC[C@H]1C(=O)N[C@@H](Cc1c[nH]c2ccccc12)C(=O)N[C@@H](Cc1c[nH]c2ccccc12)C(=O)N1CCC[C@H]1C(=O)N[C@@H](Cc1c[nH]c2ccccc12)C(=O)N[C@@H](CCCN=C(N)N)C(=O)N[C@@H](CCCN=C(N)N)C(N)=O` [ILPLKLPWWPWRR], the figures for the minimal inhibitory concentration (MIC) in [9], in experiment [10] and in experiment [11] were 28.4 µM (≈ 50 µg/mL), 1.78 µM (≈ 3.13 µg/mL) and 1.78 µM (≈ 3.13 µg/mL), respectively.

Turning to `CC[C@H](C)[C@H](N)C(=O)N[C@@H](CC(C)C)C(=O)N1CCC[C@H]1C(=O)N[C@@H](Cc1c[nH]c2ccccc12)C(=O)N[C@@H](CCCCN)C(=O)N[C@@H](Cc1c[nH]c2ccccc12)C(=O)N1CCC[C@H]1C(=O)N[C@@H](Cc1c[nH]c2ccccc12)C(=O)N[C@@H](CC(C)C)C(=O)N1CCC[C@H]1C(=O)N[C@@H](Cc1c[nH]c2ccccc12)C(=O)N[C@@H](CCCCN)C(=O)N[C@@H](CCCCN)C(N)=O` [ILPWKWPWLPWKK], the minimal inhibitory concentration (MIC) was 28.1 µM (≈ 50 µg/mL) in experiment [9], 1.76 µM (≈ 3.13 µg/mL) in experiment [10] and 1.76 µM (≈ 3.13 µg/mL) in [11].

On to `CC[C@H](C)[C@H](N)C(=O)N[C@@H](CC(C)C)C(=O)N1CCC[C@H]1C(=O)N[C@@H](Cc1c[nH]c2ccccc12)C(=O)N[C@@H](CCCCN)C(=O)N[C@@H](Cc1c[nH]c2ccccc12)C(=O)N1CCC[C@H]1C(=O)N[C@@H](Cc1ccc(O)cc1)C(=O)N[C@@H](CC(C)C)C(=O)N1CCC[C@H]1C(=O)N[C@@H](Cc1c[nH]c2ccccc12)C(=O)N[C@@H](CCCN=C(N)N)C(=O)N[C@@H](CCCN=C(N)N)C(N)=O` [ILPWKWPYLPWRR], for which the minimal inhibitory concentration (MIC) in [9] came out at 13.8 µM (≈ 25 µg/mL); in [10] it was 3.45 µM (≈ 6.25 µg/mL); in experiment [11], 1.73 µM (≈ 3.13 µg/mL).

The molecule `CC(C)C[C@H](NC(=O)[C@H](CC(C)C)NC(=O)[C@H](CCCCN)NC(=O)[C@@H](N)CCCCN)C(=O)N[C@@H](CCCCN)C(=O)N[C@@H](Cc1c[nH]c2ccccc12)C(N)=O` [KKLLKW] displayed an MIC in [12] not below 100 µM.

For `CC(C)C[C@H](NC(=O)CNC(=O)[C@H](Cc1ccc(O)cc1)NC(=O)[C@H](Cc1cnc[nH]1)NC(=O)[C@@H]1CCCN1C(=O)[C@H](CC(C)C)NC(=O)[C@H](CCC(=O)O)NC(=O)[C@H](Cc1ccccc1)NC(=O)[C@H](Cc1cnc[nH]1)NC(=O)[C@H](CO)NC(=O)[C@@H](N)CCCCN)C(=O)O` [KSHFELPHYGL], the minimal inhibitory concentration (MIC) is more than 500 µM in experiment [1]; more than 500 µM in experiment [13]; not below 315 µM in [14]; 468 µM and 458 µM and 442 µM in [15]; not below 500 µM in experiment [16].

On to `NCCCC[C@H](N)C(=O)N[C@@H](Cc1c[nH]c2ccccc12)C(=O)N[C@@H](CCCN=C(N)N)C(=O)N[C@@H](CCCN=C(N)N)C(=O)N[C@@H](Cc1c[nH]c2ccccc12)C(N)=O` [KWRRW], for which the MIC in [12] is not below 100 µM.

In [12], `CC(C)C[C@H](NC(=O)[C@H](CC(C)C)NC(=O)[C@H](CCCCN)NC(=O)[C@H](CC(C)C)NC(=O)[C@H](CC(C)C)NC(=O)[C@H](Cc1c[nH]c2ccccc12)NC(=O)[C@H](CCCCN)NC(=O)[C@H](CC(C)C)NC(=O)[C@@H](N)CC(C)C)C(N)=O` [LLKWLLKLL] registered a minimum inhibitory concentration (MIC) of 3.13 µM (≈ 3.56 µg/mL).

`CC(C)C[C@H](NC(=O)[C@H](CC(C)C)NC(=O)[C@H](CCCCN)NC(=O)[C@H](CC(C)C)NC(=O)[C@H](CC(C)C)NC(=O)[C@H](CCCCN)NC(=O)[C@H](CC(C)C)NC(=O)[C@H](CC(C)C)NC(=O)[C@@H](N)CC(C)C)C(N)=O` [LLLKLLKLL]: the MIC in experiment [12] was found to be 3.13 µM (≈ 3.34 µg/mL).

Consider `CC(C)C[C@H](NC(=O)[C@H](CO)NC(=O)[C@H](CCCN=C(N)N)NC(=O)[C@H](CCCCN)NC(=O)[C@@H](NC(=O)[C@@H](NC(=O)CNC(=O)[C@H](CCCN=C(N)N)NC(=O)[C@H](Cc1cnc[nH]1)NC(=O)[C@H](Cc1c[nH]c2ccccc12)NC(=O)[C@H](Cc1ccccc1)NC(=O)[C@H](Cc1cnc[nH]1)NC(=O)[C@H](Cc1ccc(O)cc1)NC(=O)[C@@H](N)Cc1ccc(O)cc1)C(C)C)[C@@H](C)O)C(=O)O` [YYHFWHRGVTKRSL], for which the minimal inhibitory concentration (MIC) was 30 µM (≈ 55.5 µg/mL) against Escherichia coli; not below 60 µM in the experiment with Bacillus subtilis; 60 µM (≈ 111 µg/mL) in experiment [17]; not below 100 µM in experiment [18]; not below 70 µM in experiment [19]; 80 µM (≈ 148 µg/mL) in [20]. The MIC was 80 µM (≈ 148 µg/mL) in experiment [21] and 70 µM (≈ 130 µg/mL) in [15].
